Data published in US6329163A, “Assays for detecting β-secretase inhibition” (Elan Pharmaceuticals, Inc., priority 1998, dated 2001).

Experiments:
APP = assay: Proteolytic activity of β-secretase as a function of pH; format: biochemical, human
β-secretase [1] = biological target: T1, β-secretase (Homo sapiens, UniProt P56817); assay: β-secretase assay in the presence of common protease inhibitors (MBP-C125 cleavage, SW-192 ELISA); format: biochemical; details: for IC50: Max Conc not given
T1 construct: purified from a natural source, such as human brain tissue or human 293 cells; endogenous in cells

β-secretase [2] = biological target: T1, β-secretase; assay: Binding of substantially purified β-secretase activity to immobilized lectins; details: immobilized lectin; Table 2
Method: Glycosylation of β-secretase has been investigated using various immobilized lectins, and ability of substantially purified β-secretase activity to bind to them was determined. […] A "-" sign signifies less than 20% binding, "+" between […] binding, "++" between 50-75% binding, and "+++" >75% binding.

T1 sequence (P56817 46-501): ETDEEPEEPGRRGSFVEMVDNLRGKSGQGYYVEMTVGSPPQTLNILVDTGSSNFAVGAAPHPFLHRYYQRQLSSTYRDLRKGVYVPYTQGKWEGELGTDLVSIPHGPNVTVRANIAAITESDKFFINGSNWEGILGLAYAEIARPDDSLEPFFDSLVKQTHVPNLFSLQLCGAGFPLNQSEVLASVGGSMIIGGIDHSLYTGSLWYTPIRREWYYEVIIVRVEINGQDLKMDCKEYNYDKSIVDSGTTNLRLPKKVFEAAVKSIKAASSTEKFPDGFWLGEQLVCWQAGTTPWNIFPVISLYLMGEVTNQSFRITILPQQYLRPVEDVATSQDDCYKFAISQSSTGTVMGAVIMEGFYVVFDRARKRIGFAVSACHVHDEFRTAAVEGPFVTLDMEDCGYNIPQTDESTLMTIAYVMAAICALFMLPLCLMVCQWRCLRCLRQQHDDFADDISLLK

Molecule | IC50 (β-secretase [1]; pH 5.5) [mM] | inhibition of β-secretase activity (in words) (β-secretase [1]) | further results
β-secretase: enzyme which cleaves APP at the amino-terminus of β-amyloid peptide, purified from human 293 cells or human brain | – | – | pH of peak proteolytic activity (APP): 5 to 5.5; proteolytic activity (APP; pH 7.5 and above): very low activity
O=c1oc(Cl)c(Cl)c2ccccc12 [3,4-dichloroisocoumarin] | – | – | inhibition at 500 µM (β-secretase [1]; Max Conc 0.5 mM, pH 5.5): < 25%
CCCCC(NC(=O)C=[N+]=[N-])C(=O)OC (stereo not drawn) [diazoacetylnorleucylmethyl ester] | > 5 | – | –
c1cnc2c(c1)ccc1ncccc12 [m-phenanthroline] | 7 | also does so | –
c1cnc2c(c1)ccc1cccnc12 [o-phenanthroline] | 7 | inhibits poorly | –
peanut (PNA): lectin (protein, UniProt P02872 24-273, looked up) Galactose-binding lectin: AETVSFNFNSFSEGNPAINFQGDVTVLSNGNIQLTNLNKVNSVGRVLYAMPVRIWSSATGNVASFLTSFSFEMKDIKDYDPADGIIFFIAPEDTQIPAGSIGGGTLGVSDTKGAGHFVGVEFDTYSNSEYNDPPTDHVGIDVNSVDSVKTVPWNSVSGAVVKVTVIYDSSTKTLSVAVTNDNGDITTIAQVVDLKAKLPERVKFGFSASGSLGGRQIHLIRSWSFTSTLITTTRRSIDNNEKKIMNMASA | – | – | β-Secretase Binding (β-secretase [2]): + (between 24-40% binding)
